The values that follow come from US9316633B2, “Methods for identifying inhibitors of solute transporters” (The Regents of the University of California, priority 2006, dated 2016).

One experiment deals with RBCs from wild-type mice. Put plainly: Osmotic water permeability by stopped-flow light scattering, RBCs from wild-type mice. It counts as cell-based, mouse. The protocol: RBC urea and water permeabilities were assayed by stopped-flow light scattering using a Hi-Tech Sf-51 instrument (Wiltshire, UK). For measurement of urea permeability, dilutions of whole blood (human or mouse; see Example 1) in PBS (hematocrit: approximately 0.5%) were incubated with test compounds for 5 min and then subjected to a 250-mM inwardly directed gradient of urea. After an initial osmotic shrinking phase, the kinetics of increasing cell volume caused by urea influx were measured as the time-course of 90° scattered light intensity at 530 nm, with increasing cell volume resulting in reduced scattered light intensity. As a positive control, 0.7 mM phloretin was added to the RBC suspension prior to stopped-flow experiments. Measurements of water permeability were carried out similarly, with sucrose (cell-impermeant) used instead of urea to establish a 250-mM osmotic gradient. As a positive control, HgCl2 (0.3 mM) was added to the RBC suspension prior to stopped-flow measurements. Osmotic water permeability coefficients (Pf) were computed from light scattering data as described (van Hoek et al., J. Biol. Chem. 267:18267-69 (1992)).
This example describes chemical knock-out of UT-B by UT-B inhibitors in RBCs and the effect on UT-B-facilitated water transport. […] Osmotic water permeability was measured by stopped-flow light scattering in RBCs from wild-type and AQP1-null mice as shown in FIG. 8A. […] AQP1-null RBCs had greater than 5-fold reduced Pf compared to wild-type RBCs.

A further experiment concerns the target T1, rat UT-A1 (Rattus norvegicus, UniProt Q62668).
T1 construct: expressed in transfected cells
T1 sequence (Q62668 1-929): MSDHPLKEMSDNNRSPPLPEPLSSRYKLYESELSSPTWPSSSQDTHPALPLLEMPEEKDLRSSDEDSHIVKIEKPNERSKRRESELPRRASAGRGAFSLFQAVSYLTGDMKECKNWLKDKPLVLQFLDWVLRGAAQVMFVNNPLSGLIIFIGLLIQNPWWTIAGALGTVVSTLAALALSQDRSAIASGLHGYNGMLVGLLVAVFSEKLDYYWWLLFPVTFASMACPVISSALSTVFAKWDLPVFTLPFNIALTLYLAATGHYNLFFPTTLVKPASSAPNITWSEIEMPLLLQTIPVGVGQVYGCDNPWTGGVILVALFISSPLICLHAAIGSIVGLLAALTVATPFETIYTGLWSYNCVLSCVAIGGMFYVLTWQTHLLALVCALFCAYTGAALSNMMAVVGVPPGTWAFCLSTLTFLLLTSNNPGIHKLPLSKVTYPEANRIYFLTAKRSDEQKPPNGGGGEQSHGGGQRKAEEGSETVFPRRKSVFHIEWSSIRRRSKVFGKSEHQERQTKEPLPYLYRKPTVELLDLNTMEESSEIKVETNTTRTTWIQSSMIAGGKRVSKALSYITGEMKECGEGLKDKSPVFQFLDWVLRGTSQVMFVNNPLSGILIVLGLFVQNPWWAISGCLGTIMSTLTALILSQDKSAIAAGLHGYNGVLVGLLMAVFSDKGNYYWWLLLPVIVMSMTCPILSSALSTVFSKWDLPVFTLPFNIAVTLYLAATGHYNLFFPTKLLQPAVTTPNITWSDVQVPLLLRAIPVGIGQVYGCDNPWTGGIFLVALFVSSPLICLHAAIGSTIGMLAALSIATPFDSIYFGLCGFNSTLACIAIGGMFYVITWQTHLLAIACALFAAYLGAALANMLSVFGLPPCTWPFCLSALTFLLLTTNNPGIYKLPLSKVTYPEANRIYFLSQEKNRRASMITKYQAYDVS
Put plainly: UT-A1-mediated urea flux across stably transfected MDCK cell layers. The format is cell-based. The settings on record: 10 μM forskolin; 0.7 mM phloretin. The protocol: Concentration-inhibition studies were performed to study the effect of the active mouse UT-B inhibitors on urea transport by UT-A. The amino acid sequences of UT-B and UT-A urea transporter isoforms share significant similarity. The cells used in these studies were MDCK cells that expressed rat UT-A1. MDCK-UT-A1-expressing cells were grown on collagen-coated porous filters until they were electrically tight, at which point 15 mM urea was introduced into buffer bathing the basolateral cell surface. […]
UT-A1-facilitated urea flux in the basolateral-to-apical direction across unstimulated and forskolin-stimulated MDCK-UT-A1 cell layers was measured in response to a 15-mM urea gradient. […] Five μL samples of apical fluid were collected at specified times during incubation at 37° C., and urea concentration was determined using a commercial kit based on chromogenic urea complexation at 520-nm wavelength (Quantichrom™ Urea Assay Kit, BioAssay Systems, Hayward, Calif.). […] Aforsk, and Aphlor were averaged absorbance values (at 520 nm) for cultures treated with forskolin and forskolin+phloretin, respectively, and Atest were values from cultures treated with forskolin+ test compound.

The next experiment concerns the target T2, UT-B (Homo sapiens, UniProt Q13336).
T2 construct: the indicator cells are red blood cells that endogenously express the UT-B urea transporter; endogenous in cells; host or cells: human red blood cells (whole venous blood, single donor)
T2 sequence (Q13336 1-389): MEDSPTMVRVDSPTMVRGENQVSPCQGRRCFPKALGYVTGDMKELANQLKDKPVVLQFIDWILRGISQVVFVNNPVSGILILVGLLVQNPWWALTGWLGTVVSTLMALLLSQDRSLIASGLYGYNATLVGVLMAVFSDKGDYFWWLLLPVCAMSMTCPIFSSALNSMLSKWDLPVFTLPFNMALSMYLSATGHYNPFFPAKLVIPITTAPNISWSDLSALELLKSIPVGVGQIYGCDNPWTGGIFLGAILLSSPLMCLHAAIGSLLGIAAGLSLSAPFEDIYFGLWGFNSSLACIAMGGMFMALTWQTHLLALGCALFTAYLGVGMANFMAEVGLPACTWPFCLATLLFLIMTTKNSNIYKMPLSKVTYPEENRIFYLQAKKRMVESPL
Put plainly: RBC lysis assay, human RBCs loaded with acetamide. The format is cell-based. The settings on record: 0.7 mM phloretin; control approximately 1.6 M.

The test system of a further experiment is urea transporter (UT). The settings on record: previously available UT inhibitors; cited from earlier work.

SMILES strings stand for the structures.

For the compound `O=C(CCc1ccc(O)cc1)c1c(O)cc(O)cc1O` [phloretin, reference compound], in the experiment with RBCs from wild-type mice, the “effect on water transport” value was “little effect”. Besides, the “change in Pf” value in the experiment on RBCs from wild-type mice (0.7 mM) is on record as “small but significant reduction”. Moreover, the “effect on UT-A1-facilitated urea transport” value at rat UT-A1 is recorded as “inhibited”. Also, on UT-B, the “acetamide concentration at fifty percent lysis” value is reported as “approximately 1.1 M”. Further, the “concentration exhibiting activity as UT inhibitor” value with urea transporter (UT) is given as more than 0.5 mM.
